A value given as a limit tells only on which side of the number the result lay.

Assay [1] relates to E. faecalis JH2-2. The assay is described as follows: MIC after inactivation of vanS by insertion in plasmid pAT80. The conditions noted are these: inactivation of vanS in pAT80, compared with pAT80. In kind it is cell-based, Enterococcus faecalis. The source says: The restriction fragments of pIP816 (Tra^−, Mob^+, Vm^r) were cloned in derivatives of the vector pAT29 which constitutes a shuttle vector between the Gram-positive and Gram-negative bacteria (oriR pAMβ1, oriR pUC, oriT RK2, spc, lacZ) (Trieu-Cuot et al., 1990, Nucleic Acids Res. 18:4296). This vector was constructed by the inventors and used to transform the strain E. coli JM103 ((lac-proAB), supE, thi, strA, sbcB15, endA, hspR4, F traD36, proAB, LacI^q, lacZ M15) (Messing et al., 1983, Methods Ezymol. 101:20-78). The plasmid DNA was prepared by an alkaline lysis protocol on a small scale (Sambrook et al., 1982, Molecular cloning, a laboratory manual. Cold Spring Harbor Laboratory, Cold Spring Harbor N.Y.) and introduced by electroporation (Cruz-Rodz A. L. et al., 1990, Mol. Gen. Genet. 224: 152-154) in E. faecalis JH2-2 (Fus^R, Rif^R) (Jacob A. E. et al., 1974, J. Bacteriol. 117: 360-372), by using a Gene Pulser apparatus (Bio-Rad Laboratories, Richmond, Calif.). The restriction profiles of the purified plasmids from E. faecalis and E. coli were compared in order to detect possible rearrangements of DNA.
The cultures were grown in brain-heart broth (BHI—Brain Heart Infusion Broth) or on agar at 37° C. […]

Assay [2] relates to strain with a high level of resistance, in particular Gram-positive cocci. The assay is described as follows: MIC towards strains with a high level of resistance. The assay is classed as cell-based.
Assay [3] has as its system BM4175. The assay is described as follows: Minimal inhibitory concentration of vancomycin for BM4175 (vanC inactivated by insertion). The conditions noted are these: Enterococcus gallinarum; BM4175, pAT217 integrated into vanC. The assay is classed as cell-based. The procedure: (§1) The cultures were grown in brain-heart broth (BHI—Brain Heart Infusion Broth) or on agar at 37° C. The method of Steers et al (Antibiot. Chemother. Basel. 9: 307-311) was used to determine the minimal inhibitory concentrations (MICs) of the antibiotics on a Mueller-Hinton gelose agar medium.
(§2) In order to evaluate the contribution of vanC to resistance to vancomycin in E. gallinarum BM4174, the vanC gene was inactivated by insertion. […] The resulting pAT217 plasmid was introduced into BM4174 by electroporation (Cruz-Rodz et al., 1990, Mol. Gen. Genet. 224:152-154) and the clones supposed to result from a homologous recombination leading to the integration of pAT217 into vanC were selected on erythromycin. The clone BM4175 was compared with BM4174 by Southern hybridization using the probe C and aphA-3 specific for pAT114. The two probes hybridized with the EcoRI fragment of 8.6 kb from BM4175.

Assay [4] has as its system E. gallinarum BM4174. The experiment in a line: Minimal inhibitory concentration of vancomycin for BM4174. The assay is classed as cell-based. The conditions noted are these: Enterococcus gallinarum, read-out: minimal inhibitory concentration. The protocol: as §1, §2
Assay [5] deals with strains with low-level resistance. The assay is described as follows: MIC towards strains with low-level resistance. The assay is classed as cell-based.

In the case of `O=C(N[C@H](CO)[C@H](O)c1ccc([N+](=O)[O-])cc1)C(Cl)Cl` [chloramphenicol], the “change of minimal inhibitory concentration (MIC)” value in assay [1] was “two-fold reduction”.

`CN[C@H](CC(C)C)C(=O)N[C@H]1C(=O)N[C@@H](CC(N)=O)C(=O)N[C@H]2C(=O)N[C@H]3C(=O)N[C@H](C(=O)N[C@H](C(=O)O)c4cc(O)cc(O)c4-c4cc3ccc4O)[C@H](O)c3ccc(c(Cl)c3)Oc3cc2cc(c3O[C@@H]2O[C@H](CO)[C@@H](O)[C@H](O)[C@H]2O[C@H]2C[C@](C)(N)[C@H](O)[C@H](C)O2)Oc2ccc(cc2Cl)[C@H]1O` [vancomycin]: the MIC was more than 32 µg/mL in assay [2] (read-out: minimal inhibitory concentrations (MIC)), 2 µg/mL in assay [3] and 16 µg/mL in assay [4]. For the same compound, the “change of minimal inhibitory concentration (MIC)” value in assay [1] is given as “remains unchanged”.

As to teicoplanin, the “minimal inhibitory concentrations (MIC)” value in assay [2] (strains with a high level of resistance (definition)) is more than 8 µg/mL. Further, the “sensitivity of the strains” value in assay [5] is “apparently sensitive”.

For the origin of these results see patent US6916906B1, “Polypeptides implicated in the expression of resistance to glycopeptides, in particular in gram-positive bacteria, nucleotide sequence coding for these polypeptides and use for diagnosis” (priority 1990, dated 2005).
